Structures are written as SMILES.

The text below walks through data of US8247556B2, “Method for preparing 6-substituted-7-aza-indoles” (Amgen Inc., priority 2005, dated 2012).

For one assay, the target named is T1, CYP 3A4 (Homo sapiens, UniProt P08684).
T1 construct: followed by 222.2 ml of 20 mg/mL HLM (BD Gentest); tissue BD Gentest; host or cells: human liver microsomes
As to the kind of experiment: Human Liver Microsome CYP 3A4 Inhibition. The class given is in vitro ADME. Conditions: human liver microsomes, midazolam substrate; read-out: inhibited CYP3A4 microsomes, IC50. As to the method: Determining the IC-50 for Human Liver Microsome CYP 3A4 Inhibition
Postassium Phosphate Buffer pH 7.4 (39.667 mL) is chilled in an ice bath and added to a 50 ml plastic tube. A 2 mM midazolam solution is prepared. 111.1 ul of 2 mM midazolam is added to the buffer followed by 222.2 ml of 20 mg/mL HLM (BD Gentest). The incubation mixture was gently inverted and equilibrated at 37° C. for 5 min. A stock inhibitor solution is prepared, such as in DMSO. Incubation mixture (801 ul) is added into 96-well, 1.2 mL plastic tubes. Inhibitor is added at various concentrations (e.g. 30 uM to 120 nM). The tubes are sealed and mix by inverting 5 times gently. The incubation mixture containing inhibitor (270 uL) is added by aliquot into wells of a 1 mL, 96-well block (duplicate). The block is placed into a 37° C. water bath and equilibrated for 3 min. 10 mM NADPH (30 ml) is added to all samples. After 5 minutes, the reactions are stopped by adding 300 ml of Quench Solution [0.1% TFA in CH3CN]. 1′-OH-Midazolam-d313C (2 mg/mL 30 uL) is added, the block is gently vortexed then centrifuged at 3000 rpm for 10 minutes at 4° C. 50 μL of supernatant from all samples is added by aliquot into a shorter, 96-well block. The aliquoted supernatants are pooled with other assay(s) and HPLC Grade Water (50 ul) is added to all samples. After covering and shaking by vortex gently for 2 minutes, the solutions were analyzed by LC-MS (API 3000,5% MeOH w/0.1% AcOH to 95% MeOH w/0.1% AcOH). 37 nM ketoconazole is used as a control.
(Liver microsomes are vesicles of endoplasmic reticulum, rich in cytochrome P450 enzymes.)

Assay [1] has as its system VEGF-stimulated HUVEC proliferation (Human Umbilical Vein Endothelial cells). Kind of assay: HUVEC Proliferation Assay. The format is cell-based. Conditions: VEGF 50 ng/mL, 72 h, CyQuant fluorescent dye, read-out: inhibited VEGF-stimulated HUVEC proliferation at a level. An outline of the steps: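 HUVEC (passage 2–3) were seeded in DMEM+10% FBS for 22 h, then pre-incubated 2–3 h with 5-point, 5-fold compound dilutions (0.25% DMSO). They were then stimulated with VEGF (50 ng/mL final) for 72 h at 37 °C. Proliferation was read by CyQuant fluorescence (485/530 nm) after freeze-thaw, and IC50 came from a 4-parameter fit.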

A further assay concerns the target T2, CYP 2D6 (Homo sapiens, UniProt P10635).
T2 construct: followed by 555.6 ml of 20 mg/mL HLM (BD Gentest); tissue BD Gentest; host or cells: human liver microsomes
As to the kind of experiment: Human Liver Microsome CYP 2D6 Inhibition. The format is in vitro ADME. Conditions: human liver microsomes, bufuralol substrate; read-out: inhibited CYP2D6 microsomes, IC50. The procedure:
Determining the IC-50 for Human Liver Microsome CYP 2D6 Inhibition
Postassium Phosphate Buffer pH 7.4 (39.333 mL) is chilled in an ice bath and added to a 50 ml plastic tube. A 3.2 mM bufuralol solution is prepared. 111.1 ul of 3.2 mM bufuralol is added to the buffer followed by 555.6 ml of 20 mg/mL HLM (BD Gentest). The incubation mixture was gently inverted and equilibrated at 37° C. for 5 min. A stock inhibitor solution is prepared, such as in DMSO. Incubation mixture (801 ul) is added into 96-well, 1.2 mL plastic tubes. Inhibitor is added at various concentrations (e.g. 30 μM to […]). The tubes are sealed and mix by inverting 5 times gently. The incubation mixture containing inhibitor (270 μL) is added by aliquot into wells of a 1 mL, 96-well block (duplicate). The block is placed into a 37° C. water bath and equilibrated for 3 minutes. 10 mM NADPH (30 ml) is added to all samples. After 5 min, the reactions are stopped by adding 300 ml of Quench Solution [0.1% TFA in CH3CN]. 1′-OH-bufuralol-d9 (750 ng/mL 30 μL) is added, the block is gently vortexed then centrifuged at 3000 rpm for 10 min at 4° C. 50 μL of supernatant from all samples is added by aliquot into a shorter, 96-well block. The aliquoted supernatants are pooled with other assay(s) and HPLC Grade Water (50 μL) is added to all samples. After covering and shaking by vortex gently for 2 minutes, the solutions were analyzed by LC-MS (API 3000, 5% MeOH w/0.1% AcOH to 95% MeOH w/0.1% AcOH). 500 nM quinidine is used as a control.

T2 sequence (P10635 whole entry): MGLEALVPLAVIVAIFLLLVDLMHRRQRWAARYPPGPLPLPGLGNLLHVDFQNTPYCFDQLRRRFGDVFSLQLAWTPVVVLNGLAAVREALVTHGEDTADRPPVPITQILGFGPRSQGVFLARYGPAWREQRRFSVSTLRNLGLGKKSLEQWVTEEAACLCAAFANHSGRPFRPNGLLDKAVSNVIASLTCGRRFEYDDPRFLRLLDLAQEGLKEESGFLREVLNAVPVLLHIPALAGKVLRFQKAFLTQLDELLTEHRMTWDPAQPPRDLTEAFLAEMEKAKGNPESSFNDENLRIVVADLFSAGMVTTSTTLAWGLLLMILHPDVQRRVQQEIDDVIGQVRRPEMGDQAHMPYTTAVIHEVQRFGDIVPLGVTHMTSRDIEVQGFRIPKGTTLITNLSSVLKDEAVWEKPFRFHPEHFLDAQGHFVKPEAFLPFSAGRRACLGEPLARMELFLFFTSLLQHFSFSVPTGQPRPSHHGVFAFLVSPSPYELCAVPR
T1 sequence (P08684 whole entry): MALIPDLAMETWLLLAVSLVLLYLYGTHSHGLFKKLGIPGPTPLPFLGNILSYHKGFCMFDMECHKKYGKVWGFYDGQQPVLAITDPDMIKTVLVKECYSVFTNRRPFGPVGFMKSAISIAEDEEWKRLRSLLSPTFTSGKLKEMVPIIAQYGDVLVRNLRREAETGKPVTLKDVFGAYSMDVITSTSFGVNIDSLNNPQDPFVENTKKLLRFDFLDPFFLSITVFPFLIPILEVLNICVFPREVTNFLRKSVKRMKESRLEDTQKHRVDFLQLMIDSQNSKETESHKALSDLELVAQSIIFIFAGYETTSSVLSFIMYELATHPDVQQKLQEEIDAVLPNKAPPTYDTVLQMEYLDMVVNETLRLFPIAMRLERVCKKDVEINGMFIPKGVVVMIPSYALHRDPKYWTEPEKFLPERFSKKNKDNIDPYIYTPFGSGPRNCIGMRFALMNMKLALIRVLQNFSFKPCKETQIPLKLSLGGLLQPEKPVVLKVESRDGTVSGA

Consider `CC1(C)CNCc2cc(NC(=O)c3cccnc3NCc3ccnc4[nH]ccc34)ccc21` [Example 1, N-(4,4-Dimethyl-1,2,3,4-tetrahydroisoquinolin-7-yl)-2-[(1H-pyrrolo[2,3-b]pyridin-4-ylmethyl)amino]nicotinamide], for which the IC50 was 9.8 µM on CYP 3A4, below 0.5 µM in assay [1] and 10 µM at CYP 2D6.

Regarding `CC(C)(C)c1ccc(NC(=O)c2cccnc2NCc2ccnc3[nH]ccc23)cc1` [Example 5, N-(4-tert-Butylphenyl)-2-[(1H-pyrrolo[2,3-b]pyridin-4-ylmethyl)amino]nicotinamide], the results for the IC50 (at CYP 3A4; in assay [1]; at CYP 2D6) were above 20 µM, below 0.5 µM and above 20 µM, respectively.

Regarding `CC1(C)CCNc2cc(NC(=O)c3cccnc3NCc3ccnc4[nH]ccc34)ccc21` [Example 9, N-(4,4-Dimethyl-1,2,3,4-tetrahydroquinolin-7-yl)-2-[(1H-pyrrolo[2,3-b]pyridin-4-ylmethyl)amino]nicotinamide], the IC50 at CYP 3A4 was above 20 µM; in assay [1], below 0.5 µM; at CYP 2D6, above 20 µM.

Consider `O=C(Nc1ccc2c(c1)CNCC21CC1)c1cccnc1NCc1ccnc2[nH]ccc12` [Example 10, N-(4-Spiro-1′-cyclopropane-1,2,3,4-tetrahydroisoquinolin-7-yl)-2-[(1H-pyrrolo[2,3-b]pyridin-4-ylmethyl)amino]nicotinamide], for which the IC50 is above 20 µM on CYP 3A4, below 0.5 µM in assay [1] and above 20 µM on CYP 2D6.

Regarding `O=C(Nc1cccc(C(O)(C(F)(F)F)C(F)(F)F)c1)c1cccnc1NCc1ccnc2[nH]ccc12` [Example 18, 2-[(1H-Pyrrolo[2,3-b]pyridin-4-ylmethyl)amino]-N-{3-[2,2,2-trifluoro-1-hydroxy-1-(trifluoromethyl)ethyl]phenyl}nicotinamide], the IC50 on CYP 3A4 was above 20 µM; in assay [1] it was below 0.5 µM.

Take `CC1(C)CC(=O)Nc2cc(NC(=O)c3cccnc3NCc3ccnc4c3CCN4)ccc21` [Example 30, 2-[(2,3-Dihydro-1H-pyrrolo[2,3-b]pyridin-4-ylmethyl)amino]-N-(4,4-dimethyl-2-oxo-1,2,3,4-tetrahydroquinolin-7-yl)nicotinamide]: the IC50 at CYP 3A4 and at CYP 2D6 was above 20 µM throughout.

Turning to `CC(=O)N1CC(C)(C)c2ccc(NC(=O)c3cccnc3NCc3c[nH]c4ncccc34)cc21` [Example 39, N-(1-acetyl-3,3-dimethyl-2,3-dihydro-1H-indol-6-yl)-2-[(1H-pyrrolo[2,3-b]pyridin-3-ylmethyl)amino]nicotinamide], the IC50 on CYP 3A4 is above 20 µM; in assay [1], below 0.5 µM.

Take `CN1CCC[C@H]1COc1cc(NC(=O)c2cccnc2NCc2ccnc3[nH]ccc23)ccc1C(F)(F)C(F)(F)F` [Example 65, N-(3-((((2S)-1-methyl-2-pyrrolidinyl)methyl)oxy)-4-(pentafluoroethyl)phenyl)-2-((1H-pyrrolo[2,3-b]pyridin-4-ylmethyl)amino)-3-pyridinecarboxamide]: the IC50 on CYP 3A4 was above 20 µM; in assay [1], below 0.5 µM.

For `CN1CCC[C@@H]1COc1cc(NC(=O)c2cccnc2NCc2ccnc3[nH]ccc23)ccc1C(F)(F)F` [Example 68, N-(3-((((2R)-1-methyl-2-pyrrolidinyl)methyl)oxy)-4-(trifluoromethyl)phenyl)-2-((1H-pyrrolo[2,3-b]pyridin-4-ylmethyl)amino)-3-pyridinecarboxamide], the IC50 at CYP 3A4 is above 20 µM; in assay [1] it was below 0.5 µM.

Regarding `O=C(Nc1ccc(C(F)(F)C(F)(F)F)c(OC[C@@H]2CCCN2)c1)c1cccnc1NCc1ccnc2[nH]ccc12` [Example 72, N-(4-(Pentafluoroethyl)-3-(((2S)-2-pyrrolidinylmethyl)oxy)phenyl)-2-((1H-pyrrolo[2,3-b]pyridin-4-ylmethyl)amino)-3-pyridinecarboxamide], the figures for the IC50 (on CYP 3A4; in assay [1]) were above 20 µM and below 0.5 µM, respectively.

On to `Cc1nc2cc(NC(=O)c3cccnc3NCc3ccnc4c3CC(=O)N4)ccc2s1` [Example 74, N-(2-methyl-1,3-benzothiazol-5-yl)-2-(((2-oxo-2,3-dihydro-1H-pyrrolo[2,3-b]pyridin-4-yl)methyl)amino)-3-pyridinecarboxamide], for which the IC50 on CYP 3A4 and on CYP 2D6 was above 20 µM in each case.

`CC(C)(C)c1ccc(NC(=O)c2cc(F)cnc2NCc2ccnc3[nH]ccc23)cc1` [Example 79, N-(4-(1,1-dimethylethyl)phenyl)-5-fluoro-2-((1H-pyrrolo[2,3-b]pyridin-4-ylmethyl)amino)-3-pyridinecarboxamide]: the IC50 on CYP 3A4 and on CYP 2D6 was above 20 µM throughout.

`O=C(Nc1ccc(Br)cc1)c1cc(F)cnc1NCc1ccnc2[nH]ccc12` [Example 89, N-(4-bromophenyl)-5-fluoro-2-((1H-pyrrolo[2,3-b]pyridin-4-ylmethyl)amino)-3-pyridinecarboxamide]: the IC50 on CYP 3A4 was above 20 µM; in assay [1] it was below 0.5 µM.

Consider `CCc1nc2cc(NC(=O)c3cc(F)cnc3NCc3ccnc4[nH]ccc34)ccc2o1` [Example 92, N-(2-ethyl-1,3-benzoxazol-5-yl)-5-fluoro-2-((1H-pyrrolo[2,3-b]pyridin-4-ylmethyl)amino)-3-pyridinecarboxamide], for which the IC50 at CYP 3A4 was above 20 µM; in assay [1], below 0.5 µM.

For `O=C(Nc1cccc(C(F)(F)F)c1)c1cc(F)cnc1NCc1ccnc2[nH]ccc12` [Example 98, 5-fluoro-2-((1H-pyrrolo[2,3-b]pyridin-4-ylmethyl)amino)-N-(3-(trifluoromethyl)phenyl)-3-pyridinecarboxamide], the IC50 at CYP 3A4 was above 20 µM; in assay [1], below 0.5 µM.

As for `CC(C)c1nc2cc(NC(=O)c3cc(F)cnc3NCc3ccnc4[nH]ccc34)ccc2s1` [Example 103, 5-fluoro-N-(2-(1-methylethyl)-1,3-benzothiazol-5-yl)-2-((1H-pyrrolo[2,3-b]pyridin-4-ylmethyl)amino)-3-pyridinecarboxamide], the IC50 at CYP 3A4 was above 20 µM; in assay [1] it was below 0.5 µM.

With `O=C(Nc1ccc(C(F)(F)F)c(F)c1)c1cc(F)cnc1NCc1ccnc2[nH]ccc12` [Example 107, 5-fluoro-N-(3-fluoro-4-(trifluoromethyl)phenyl)-2-((1H-pyrrolo[2,3-b]pyridin-4-ylmethyl)amino)-3-pyridinecarboxamide], the IC50 at CYP 3A4 is above 20 µM; in assay [1], below 0.5 µM.

For the molecule `O=C(Nc1ccc(C(F)(F)F)c(Cl)c1)c1cc(F)cnc1NCc1ccnc2[nH]ncc12` [Example 127, N-(3-Chloro-4-(trifluoromethyl)phenyl)-5-fluoro-2-((1H-pyrazolo[3,4-b]pyridin-4-ylmethyl)amino)-3-pyridinecarboxamide], the figures for the IC50 (on CYP 3A4; in assay [1]) were above 20 µM and below 0.5 µM, respectively.

For the molecule `CC(C)(C)c1ccc(NC(=O)c2cccnc2NCc2ccncc2)cc1` [N-(4-tert-Butylphenyl)-2-((4-pyridinylmethyl)amino)-3-pyridinecarboxamide, reference compound], the figures for the IC50 at CYP 3A4 and on CYP 2D6 were 2.7 µM and 8.7 µM, respectively.
